# Results published in article PMC7265341, “Quantifying CDK inhibitor selectivity in live cells” (Nature Communications, 2020).
# Read-outs that look alike come from different tables or passages of the source.
# Columns and labels:
# CDK3/Cyclin E1 = CDK3/Cyclin E1 (Homo sapiens, UniProt Q00526); assay: NanoBRET live-cell target engagement, CDK3-NanoLuc/Cyclin E1 in HEK-293; assay type: binding; details: CDK3/E1
# CDK4/Cyclin D1 = CDK4/Cyclin D1 (Homo sapiens, UniProt P11802); assay: NanoBRET live-cell target engagement, NanoLuc-CDK4/Cyclin D1 in HEK-293; assay type: binding; details: CDK4/D1; for IC50: read-out: IC50
# CDK5/CDK5R1 = CDK5/CDK5R1 (Homo sapiens, UniProt Q00535); assay: NanoBRET live-cell target engagement, CDK5-NanoLuc/CDK5R1 in HEK-293; assay type: binding; details: CDK5/CDK5R1
# CDK6/Cyclin D1 = CDK6/Cyclin D1 (Homo sapiens, UniProt Q00534); assay: NanoBRET live-cell target engagement, NanoLuc-CDK6/Cyclin D1 in HEK-293; assay type: binding; details: CDK6/D1; for IC50: read-out: IC50
# CDK8/Cyclin C = CDK8/Cyclin C (Homo sapiens, UniProt P49336); assay: NanoBRET live-cell target engagement, NanoLuc-CDK8/Cyclin C in HEK-293; assay type: binding; details: CDK8/C
# CDK11A/Cyclin L2 = target: T1, CDK11A/Cyclin L2 (Homo sapiens, UniProt Q9UQ88); assay: NanoBRET live-cell target engagement, CDK11A-NanoLuc/Cyclin L2 in HEK-293; assay type: binding; details: CDK11a/L2
# T1 sequence (Q9UQ88 1-783): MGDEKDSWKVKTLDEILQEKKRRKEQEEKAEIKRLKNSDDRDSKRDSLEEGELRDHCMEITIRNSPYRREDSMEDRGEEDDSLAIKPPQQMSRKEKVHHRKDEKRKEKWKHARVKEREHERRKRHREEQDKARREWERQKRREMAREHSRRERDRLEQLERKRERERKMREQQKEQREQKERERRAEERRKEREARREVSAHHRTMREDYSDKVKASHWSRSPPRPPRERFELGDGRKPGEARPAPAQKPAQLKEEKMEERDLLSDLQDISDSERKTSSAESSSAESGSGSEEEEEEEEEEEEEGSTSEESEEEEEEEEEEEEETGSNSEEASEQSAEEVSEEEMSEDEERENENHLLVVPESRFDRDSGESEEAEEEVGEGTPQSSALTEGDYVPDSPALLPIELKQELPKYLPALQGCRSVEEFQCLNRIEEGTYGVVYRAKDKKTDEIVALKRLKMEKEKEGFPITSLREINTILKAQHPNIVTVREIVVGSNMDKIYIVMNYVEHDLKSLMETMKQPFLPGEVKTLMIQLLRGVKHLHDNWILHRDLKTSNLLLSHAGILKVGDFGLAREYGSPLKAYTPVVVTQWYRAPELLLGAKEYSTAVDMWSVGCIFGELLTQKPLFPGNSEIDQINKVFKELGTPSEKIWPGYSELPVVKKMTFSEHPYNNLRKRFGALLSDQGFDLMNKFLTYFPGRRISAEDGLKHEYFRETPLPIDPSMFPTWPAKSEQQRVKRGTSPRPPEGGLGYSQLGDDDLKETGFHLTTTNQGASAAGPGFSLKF
# CDK11B/Cyclin L2 = CDK11B/Cyclin L2 (Homo sapiens, UniProt P21127); assay: NanoBRET live-cell target engagement, CDK11B-NanoLuc/Cyclin L2 in HEK-293; assay type: binding; details: CDK11b/L2
# CDK12/Cyclin K = CDK12/Cyclin K (Homo sapiens, UniProt Q9NYV4); assay: NanoBRET live-cell target engagement, CDK12-NanoLuc/Cyclin K in HEK-293; assay type: binding; details: CDK12/K
# CDK13/Cyclin K = CDK13/Cyclin K (Homo sapiens, UniProt Q14004); assay: NanoBRET live-cell target engagement, CDK13-NanoLuc/Cyclin K in HEK-293; assay type: binding; details: CDK13/K
# CDK14/Cyclin Y = CDK14/Cyclin Y (Homo sapiens, UniProt O94921); assay: NanoBRET live-cell target engagement, CDK14-NanoLuc/Cyclin Y in HEK-293; assay type: binding; details: CDK14/Y; for IC50: read-out: IC50
# CDK15/Cyclin Y = CDK15/Cyclin Y (Homo sapiens, UniProt Q96Q40); assay: NanoBRET live-cell target engagement, NanoLuc-CDK15/Cyclin Y in HEK-293; assay type: binding; details: CDK15/Y; for IC50: read-out: IC50
# CDK16/Cyclin Y = CDK16/Cyclin Y (Homo sapiens, UniProt Q00536); assay: NanoBRET live-cell target engagement, CDK16-NanoLuc/Cyclin Y in HEK-293; assay type: binding; details: CDK16/Y; for IC50: read-out: IC50
# CDK17/Cyclin Y = CDK17/Cyclin Y (Homo sapiens, UniProt Q00537); assay: NanoBRET live-cell target engagement, CDK17-NanoLuc/Cyclin Y in HEK-293; assay type: binding; details: CDK17/Y; for IC50: read-out: IC50
# CDK18/Cyclin Y = CDK18/Cyclin Y (Homo sapiens, UniProt Q07002); assay: NanoBRET live-cell target engagement, CDK18-NanoLuc/Cyclin Y in HEK-293; assay type: binding; details: CDK18/Y
# CDK20/Cyclin H = CDK20/Cyclin H (Homo sapiens, UniProt Q8IZL9); assay: NanoBRET live-cell target engagement, NanoLuc-CDK20/Cyclin H in HEK-293; assay type: binding; details: CDK20/H
# CDK19/Cyclin C = CDK19/Cyclin C (Homo sapiens, UniProt Q9BWU1); assay: NanoBRET live-cell target engagement, NanoLuc-CDK19/Cyclin C in HEK-293
# CDK10/Cyclin L2 = CDK10/Cyclin L2 (Homo sapiens, UniProt Q15131); assay: NanoBRET live-cell target engagement, CDK10-NanoLuc/Cyclin L2 in HEK-293; details: CDK10/L2
# Sequence of CDK10/Cyclin L2 (Q15131 whole entry): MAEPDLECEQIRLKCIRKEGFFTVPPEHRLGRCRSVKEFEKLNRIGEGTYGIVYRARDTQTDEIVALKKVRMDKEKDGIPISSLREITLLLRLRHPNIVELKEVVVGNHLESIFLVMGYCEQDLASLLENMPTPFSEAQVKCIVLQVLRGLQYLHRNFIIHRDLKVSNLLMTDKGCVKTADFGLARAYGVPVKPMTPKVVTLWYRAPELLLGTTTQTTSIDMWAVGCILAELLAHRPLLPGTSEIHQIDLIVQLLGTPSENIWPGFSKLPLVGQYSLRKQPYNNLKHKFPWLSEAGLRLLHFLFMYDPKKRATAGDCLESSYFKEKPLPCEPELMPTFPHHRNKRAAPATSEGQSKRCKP
# Sequence of CDK5/CDK5R1 (Q00535 whole entry): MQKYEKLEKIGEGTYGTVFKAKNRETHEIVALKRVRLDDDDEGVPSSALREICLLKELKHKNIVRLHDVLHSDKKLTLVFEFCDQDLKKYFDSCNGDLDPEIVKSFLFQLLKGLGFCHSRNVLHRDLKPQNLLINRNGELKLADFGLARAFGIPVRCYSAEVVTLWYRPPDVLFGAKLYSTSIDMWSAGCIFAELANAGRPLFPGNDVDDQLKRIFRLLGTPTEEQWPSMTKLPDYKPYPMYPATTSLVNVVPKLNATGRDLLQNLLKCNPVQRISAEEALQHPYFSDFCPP
# Sequence of CDK5/CDK5R1 (Q15078 whole entry partner): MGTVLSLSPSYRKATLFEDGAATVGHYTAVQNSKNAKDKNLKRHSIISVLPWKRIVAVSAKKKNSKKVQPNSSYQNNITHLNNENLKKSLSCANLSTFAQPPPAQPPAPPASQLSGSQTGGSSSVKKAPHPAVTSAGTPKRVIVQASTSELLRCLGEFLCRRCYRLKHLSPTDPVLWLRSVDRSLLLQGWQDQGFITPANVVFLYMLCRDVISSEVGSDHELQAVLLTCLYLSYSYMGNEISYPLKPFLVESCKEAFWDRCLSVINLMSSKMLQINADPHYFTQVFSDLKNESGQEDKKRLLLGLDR
# Sequence of CDK16/Cyclin Y (Q00536 whole entry): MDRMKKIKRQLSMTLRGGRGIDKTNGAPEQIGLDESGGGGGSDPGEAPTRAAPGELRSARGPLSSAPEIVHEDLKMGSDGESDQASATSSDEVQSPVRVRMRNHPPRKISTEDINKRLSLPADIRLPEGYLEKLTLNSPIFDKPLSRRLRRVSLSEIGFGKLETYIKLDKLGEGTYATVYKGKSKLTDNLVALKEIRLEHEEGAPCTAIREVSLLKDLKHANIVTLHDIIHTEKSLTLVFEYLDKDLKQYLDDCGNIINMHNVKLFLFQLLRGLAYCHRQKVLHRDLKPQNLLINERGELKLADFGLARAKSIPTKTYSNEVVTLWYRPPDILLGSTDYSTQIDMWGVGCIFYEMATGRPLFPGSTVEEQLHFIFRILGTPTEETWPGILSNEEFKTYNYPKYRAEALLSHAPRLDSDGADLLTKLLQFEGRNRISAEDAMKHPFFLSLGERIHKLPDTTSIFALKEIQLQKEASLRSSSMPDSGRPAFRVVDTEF
# Sequence of CDK16/Cyclin Y (Q8ND76 whole entry partner): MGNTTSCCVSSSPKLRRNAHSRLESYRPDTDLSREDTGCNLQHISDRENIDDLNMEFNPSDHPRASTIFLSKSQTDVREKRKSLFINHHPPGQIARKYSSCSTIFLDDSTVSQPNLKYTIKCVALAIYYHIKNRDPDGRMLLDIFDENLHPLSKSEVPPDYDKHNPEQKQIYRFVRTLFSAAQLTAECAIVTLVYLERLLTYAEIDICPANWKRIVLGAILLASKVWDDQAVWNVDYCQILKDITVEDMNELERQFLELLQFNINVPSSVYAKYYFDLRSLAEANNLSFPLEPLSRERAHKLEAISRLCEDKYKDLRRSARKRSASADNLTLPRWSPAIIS
# Sequence of CDK4/Cyclin D1 (P11802 whole entry): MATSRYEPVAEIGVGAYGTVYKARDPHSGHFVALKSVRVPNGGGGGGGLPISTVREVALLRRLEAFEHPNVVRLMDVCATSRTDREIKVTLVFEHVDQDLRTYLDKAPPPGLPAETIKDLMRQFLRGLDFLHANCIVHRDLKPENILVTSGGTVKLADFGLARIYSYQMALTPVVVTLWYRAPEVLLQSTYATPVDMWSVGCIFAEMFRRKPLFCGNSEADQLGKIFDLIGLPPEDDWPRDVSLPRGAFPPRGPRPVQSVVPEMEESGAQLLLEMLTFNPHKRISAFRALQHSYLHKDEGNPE
# Sequence of CDK4/Cyclin D1 (P24385 whole entry partner): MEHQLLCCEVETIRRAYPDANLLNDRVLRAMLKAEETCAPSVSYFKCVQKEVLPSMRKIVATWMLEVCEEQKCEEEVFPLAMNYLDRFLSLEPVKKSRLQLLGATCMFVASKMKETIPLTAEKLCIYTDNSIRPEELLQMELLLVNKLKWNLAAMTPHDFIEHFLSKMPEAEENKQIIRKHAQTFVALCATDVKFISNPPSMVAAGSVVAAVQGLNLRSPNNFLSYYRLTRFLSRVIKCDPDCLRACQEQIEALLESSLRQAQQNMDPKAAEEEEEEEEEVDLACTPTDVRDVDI
# Sequence of CDK11B/Cyclin L2 (P21127 1-782 isoform P21127-2): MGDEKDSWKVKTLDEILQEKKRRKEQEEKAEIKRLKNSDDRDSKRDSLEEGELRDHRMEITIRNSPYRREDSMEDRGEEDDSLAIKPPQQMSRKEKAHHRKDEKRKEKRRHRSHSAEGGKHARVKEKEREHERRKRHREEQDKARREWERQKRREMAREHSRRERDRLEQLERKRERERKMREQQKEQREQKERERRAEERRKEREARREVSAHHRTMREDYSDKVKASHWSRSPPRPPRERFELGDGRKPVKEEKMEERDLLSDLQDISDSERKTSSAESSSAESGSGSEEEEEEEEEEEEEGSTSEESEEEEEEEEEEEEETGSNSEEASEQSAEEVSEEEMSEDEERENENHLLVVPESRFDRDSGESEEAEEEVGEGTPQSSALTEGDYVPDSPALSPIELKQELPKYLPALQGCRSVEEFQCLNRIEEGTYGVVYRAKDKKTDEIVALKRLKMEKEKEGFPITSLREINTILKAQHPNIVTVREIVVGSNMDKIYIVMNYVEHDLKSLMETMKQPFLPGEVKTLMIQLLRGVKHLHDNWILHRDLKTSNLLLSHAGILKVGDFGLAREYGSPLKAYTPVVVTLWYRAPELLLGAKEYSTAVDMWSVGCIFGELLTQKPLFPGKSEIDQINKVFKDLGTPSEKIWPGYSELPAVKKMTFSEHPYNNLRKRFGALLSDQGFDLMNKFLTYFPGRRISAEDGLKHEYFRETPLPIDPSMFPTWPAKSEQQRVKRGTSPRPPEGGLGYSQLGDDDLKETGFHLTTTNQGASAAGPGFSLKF
# Sequence of CDK8/Cyclin C (P49336 whole entry): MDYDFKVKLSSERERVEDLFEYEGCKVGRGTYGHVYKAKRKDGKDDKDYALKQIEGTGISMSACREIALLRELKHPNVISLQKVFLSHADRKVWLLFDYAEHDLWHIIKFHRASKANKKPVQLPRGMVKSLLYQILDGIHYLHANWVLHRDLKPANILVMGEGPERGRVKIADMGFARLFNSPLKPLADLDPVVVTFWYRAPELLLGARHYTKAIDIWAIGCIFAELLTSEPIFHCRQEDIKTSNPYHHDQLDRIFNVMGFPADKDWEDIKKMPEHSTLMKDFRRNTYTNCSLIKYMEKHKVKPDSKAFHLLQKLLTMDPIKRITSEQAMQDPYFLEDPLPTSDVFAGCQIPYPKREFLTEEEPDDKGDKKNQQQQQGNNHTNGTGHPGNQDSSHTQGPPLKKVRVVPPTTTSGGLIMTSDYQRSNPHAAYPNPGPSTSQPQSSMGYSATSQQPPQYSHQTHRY
# Sequence of CDK8/Cyclin C (P24863 whole entry partner): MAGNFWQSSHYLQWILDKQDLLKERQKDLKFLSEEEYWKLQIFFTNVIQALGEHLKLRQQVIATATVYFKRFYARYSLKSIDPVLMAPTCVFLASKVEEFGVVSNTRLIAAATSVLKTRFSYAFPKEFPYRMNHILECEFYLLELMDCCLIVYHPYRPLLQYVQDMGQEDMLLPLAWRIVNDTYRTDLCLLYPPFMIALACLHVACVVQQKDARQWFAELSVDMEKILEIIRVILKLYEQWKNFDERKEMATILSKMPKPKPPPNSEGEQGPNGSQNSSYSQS
# Sequence of CDK6/Cyclin D1 (Q00534 whole entry): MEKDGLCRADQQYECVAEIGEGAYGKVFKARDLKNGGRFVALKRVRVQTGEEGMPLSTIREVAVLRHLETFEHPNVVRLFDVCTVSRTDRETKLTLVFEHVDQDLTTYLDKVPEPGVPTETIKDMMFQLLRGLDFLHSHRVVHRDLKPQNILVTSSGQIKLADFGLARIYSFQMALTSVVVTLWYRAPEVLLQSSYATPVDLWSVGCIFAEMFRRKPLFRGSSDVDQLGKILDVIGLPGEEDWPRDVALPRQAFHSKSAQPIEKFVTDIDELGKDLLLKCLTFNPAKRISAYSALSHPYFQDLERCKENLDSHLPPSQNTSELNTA
# Sequence of CDK6/Cyclin D1 (P24385 whole entry partner): as the sequence (P24385 whole entry partner) above
# Sequence of CDK17/Cyclin Y (Q00537 whole entry): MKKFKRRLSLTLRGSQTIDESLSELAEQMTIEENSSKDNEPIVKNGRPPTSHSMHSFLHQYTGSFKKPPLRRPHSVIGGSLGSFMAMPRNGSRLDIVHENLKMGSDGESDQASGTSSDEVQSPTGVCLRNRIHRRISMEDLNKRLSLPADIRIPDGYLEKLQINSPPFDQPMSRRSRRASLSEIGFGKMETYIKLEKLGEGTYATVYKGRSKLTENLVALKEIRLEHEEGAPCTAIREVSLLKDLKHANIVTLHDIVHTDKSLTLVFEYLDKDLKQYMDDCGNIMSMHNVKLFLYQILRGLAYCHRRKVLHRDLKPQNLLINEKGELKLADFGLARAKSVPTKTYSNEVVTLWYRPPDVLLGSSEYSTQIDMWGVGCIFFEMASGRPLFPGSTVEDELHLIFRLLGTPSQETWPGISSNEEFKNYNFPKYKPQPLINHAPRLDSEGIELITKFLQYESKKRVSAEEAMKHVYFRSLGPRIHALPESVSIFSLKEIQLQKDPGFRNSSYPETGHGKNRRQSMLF
# Sequence of CDK17/Cyclin Y (Q8ND76 whole entry partner): as the sequence (Q8ND76 whole entry partner) above
smiles,measurement,setting,value
CNc1nc(C)c(-c2nc(Nc3cccc(S(N)(=O)=O)c3)ncc2F)s1 [CDKI-73],Inhibition at 10µM (%),CDK3/Cyclin E1; average,97.0%
same,Inhibition at 10µM (%),CDK3/Cyclin E1; experiment 1,94.8%
same,Inhibition at 10µM (%),CDK3/Cyclin E1; experiment 2,99.2%
same,Inhibition at 10µM (%),CDK4/Cyclin D1; average,93.8%
same,IC50,CDK4/Cyclin D1; average (± SEM where n=3),12 nM
same,Inhibition at 10µM (%),CDK4/Cyclin D1; experiment 1,99.0%
same,IC50,CDK4/Cyclin D1; experiment 1,13 nM
same,Inhibition at 10µM (%),CDK4/Cyclin D1; experiment 2,88.5%
same,IC50,CDK4/Cyclin D1; experiment 2,11 nM
same,Inhibition at 10µM (%),CDK5/CDK5R1; average,90.6%
same,Inhibition at 10µM (%),CDK5/CDK5R1; experiment 1,88.4%
same,Inhibition at 10µM (%),CDK5/CDK5R1; experiment 2,92.7%
same,Inhibition at 10µM (%),CDK6/Cyclin D1; average,99.1%
same,IC50,CDK6/Cyclin D1; average (± SEM where n=3),14 nM
same,Inhibition at 10µM (%),CDK6/Cyclin D1; experiment 1,98.8%
same,IC50,CDK6/Cyclin D1; experiment 1,22 nM
same,Inhibition at 10µM (%),CDK6/Cyclin D1; experiment 2,99.3%
same,IC50,CDK6/Cyclin D1; experiment 2,6.6 nM
same,Inhibition at 10µM (%),CDK8/Cyclin C; average,89.5%
same,Inhibition at 10µM (%),CDK8/Cyclin C; experiment 1,81.5%
same,Inhibition at 10µM (%),CDK8/Cyclin C; experiment 2,97.4%
same,Inhibition at 10µM (%),CDK11A/Cyclin L2; average,42.8%
same,Inhibition at 10µM (%),CDK11A/Cyclin L2; experiment 1,32.6%
same,Inhibition at 10µM (%),CDK11A/Cyclin L2; experiment 2,53.0%
same,Inhibition at 10µM (%),CDK11B/Cyclin L2; average,50.2%
same,Inhibition at 10µM (%),CDK11B/Cyclin L2; experiment 1,41.6%
same,Inhibition at 10µM (%),CDK11B/Cyclin L2; experiment 2,58.7%
same,Inhibition at 10µM (%),CDK12/Cyclin K; average,42.5%
same,Inhibition at 10µM (%),CDK12/Cyclin K; experiment 1,31.7%
same,Inhibition at 10µM (%),CDK12/Cyclin K; experiment 2,53.2%
same,Inhibition at 10µM (%),CDK13/Cyclin K; average,37.1%
same,Inhibition at 10µM (%),CDK13/Cyclin K; experiment 1,35.9%
same,Inhibition at 10µM (%),CDK13/Cyclin K; experiment 2,38.4%
same,Inhibition at 10µM (%),CDK14/Cyclin Y; average,92.7%
same,IC50,CDK14/Cyclin Y; average (± SEM where n=3),48 nM
same,Inhibition at 10µM (%),CDK14/Cyclin Y; experiment 1,93.7%
same,IC50,CDK14/Cyclin Y; experiment 1,59 nM
same,Inhibition at 10µM (%),CDK14/Cyclin Y; experiment 2,91.8%
same,IC50,CDK14/Cyclin Y; experiment 2,37 nM
same,Inhibition at 10µM (%),CDK15/Cyclin Y; average,92.4%
same,IC50,CDK15/Cyclin Y; average (± SEM where n=3),80 nM
same,Inhibition at 10µM (%),CDK15/Cyclin Y; experiment 1,92.6%
same,IC50,CDK15/Cyclin Y; experiment 1,107 nM
same,Inhibition at 10µM (%),CDK15/Cyclin Y; experiment 2,92.2%
same,IC50,CDK15/Cyclin Y; experiment 2,54 nM
same,IC50,CDK16/Cyclin Y; average (± SEM where n=3),4.1 nM
same,Inhibition at 10µM (%),CDK16/Cyclin Y; experiment 1,92.7%
same,IC50,CDK16/Cyclin Y; experiment 1,3.2 nM
same,Inhibition at 10µM (%),CDK16/Cyclin Y; experiment 2,92.0%
same,IC50,CDK16/Cyclin Y; experiment 2,4.9 nM
same,Inhibition at 10µM (%),CDK17/Cyclin Y; average,92.2%
same,IC50,CDK17/Cyclin Y; average (± SEM where n=3),8.3 nM
same,Inhibition at 10µM (%),CDK17/Cyclin Y; experiment 1,92.4%
same,IC50,CDK17/Cyclin Y; experiment 1,7.8 nM
same,Inhibition at 10µM (%),CDK17/Cyclin Y; experiment 2,92.0%
same,IC50,CDK17/Cyclin Y; experiment 2,8.8 nM
same,Inhibition at 10µM (%),CDK18/Cyclin Y; experiment 1,95.5%
same,Inhibition at 10µM (%),CDK18/Cyclin Y; experiment 2,102.2%
same,Inhibition at 10µM (%),CDK20/Cyclin H; experiment 1,73.0%
same,Inhibition at 10µM (%),CDK20/Cyclin H; experiment 2,44.8%
same,Inhibition at 10µM (%),"CDK19/Cyclin C; CDK19/C, average",79.0%
same,IC50,"CDK19/Cyclin C; CDK19/C, experiment 1",507 nM
same,Inhibition at 10µM (%),"CDK19/Cyclin C; CDK19/C, experiment 1",76.8%
same,IC50,"CDK19/Cyclin C; CDK19/C, experiment 2",120 nM
same,Inhibition at 10µM (%),"CDK19/Cyclin C; CDK19/C, experiment 2",81.3%
same,IC50,"CDK19/Cyclin C; CDK19/Y (so in the source), average (± SEM where n=3)",310 nM
same,Inhibition at 10µM (%),CDK10/Cyclin L2; average,40.1%
same,Inhibition at 10µM (%),CDK10/Cyclin L2; experiment 1,36.9%
same,Inhibition at 10µM (%),CDK10/Cyclin L2; experiment 2,43.3%
